Laboratory results reported in patent publication US5389644A, “1,4-dihydropyridine compounds” (priority 1992, dated 1995).

Tests used:
DC-3F/AD = test: Cytotoxicity: reversal of resistance to actinomycin D (reversion factor), line DC-3F/AD; assay type: cell-based, Chinese hamster
Method: (§1) The parameter measured is the cytotoxicity of the antitumour drug, quantified in the absence and in the presence of the reversing compound. Two resistant cell lines were used: 1 Chinese hamster lung line, DC-3F/AD, the resistance of which was induced by actinomycin D. […] The compounds tested for their capacity to reverse the resistance are added at the same time as the cytotoxic agent. The cells are then incubated for 4 days.

KB-A1 [1] = test: Cytotoxicity: reversal of resistance to adriamycin (reversion factor), line KB-A1; assay type: cell-based, Human
Method: as §1, with “compound.” for “compound. Two resistant cell lines were used: 1 Chinese hamster lung line, DC-3F/AD, the resistance of which was induced by actinomycin D.”

KB-A1 [2] = test: Flow cytometry: intracellular accumulation of ADR, line KB-A1; assay type: cell-based, Human; details: ADR 50 μM, 5 hours
Method: Also measured was the effect of the compounds on the intracellular concentration of adriamycin. […] By measuring that fluorescence, it is thus possible to obtain a relative measurement of the intracellular concentration of ADR. […] The cells (5×10^5 per ml) were exposed simultaneously to ADR at a fixed concentration (50 μM) and to the tested compounds at various concentrations. After 5 hours' incubation, the intracellular accumulation of ADR was evaluated by FCM. […] The results were presented in the form of linear histograms of the intracellular ADR fluorescence. Expression of the results: for each of the histograms the mean fluorescence per channel (MEAN) was determined by the computer of the apparatus. For all experiments: a negative control (cells without ADR) fixed the autofluorescence threshold. a positive control (cells with ADR) determined the MEAN value=MN1. the "test" tubes (cells with ADR and with compound) were used to determine, for each of the compounds and at each of the concentrations, the MEAN values=MN2. The results are expressed in the form of variations from the mean fluorescence obtained for each of the "test" tubes (MN2) in relation to the mean fluorescence obtained with the positive control (MN1): VAR-MEAN=MN2-MN1. The measured parameter is thus the increase in ADR fluorescence in the presence of the tested compounds.

Plasmodium falciparum = details: literature (Krogstad; Martin; Deloron); cited from earlier work
P 388/VCR = test: In vivo increase in antitumour activity of vincristine, resistant line P 388/VCR; design: species or system murine leukaemia in female B6D2F1 mice
Excerpt: This study was completed by an in vivo study, using a murine leukaemia resistant to vincristine (P 388/VCR) and using the compounds of the present invention in association with vincristine.
(§2) The sensitive parent line P 388 (murine leukaemia) and the sub-line resistant to vincristine, P 388/VCR, were supplied by NCI (Frederick, USA). The tumour cells (10^6 cells) were inoculated on day 0 into the indraperitoneal cavity of female B6D2F1 mice (Iffa Credo, France) weighing from 18 to 20 g (groups of 8 to 10 animals).
Every day for 4 days, starting from day 1, the animals received:
an administration of 25 to 150 mg/kg by i.p., p.o. or i.v. route of the compound of the present invention to be tested, as mentioned in the table 4a; then
(§3) 30 to 60 minutes later, an administration by the i.p. route of 0.25 mg/kg of vincristine (used as a reference antitumour agent).
(§4) The antitumour activity is expressed as follows: [formula]
(§5) The values are mean values obtained in independent experiments (# sem when n is greater than or equal to 3).

P 388 = test: In vivo increase in antitumour activity of vincristine, sensitive line P388; design: species or system murine leukaemia in female B6D2F1 mice; details: compound 150 mg/kg p.o.
Method: as §2
Every day for 4 days, starting from day 1, the animals received: […]
as §3, §4, §5
Using the sensitive line (P388) the tested compounds of the invention increase considerably the sensitivity of the cells to vincristine.

calcium channel = target: T1, calcium channel (Sus scrofa, UniProt A0A8W4FNC0); test: Affinity for the calcium channel labelled with [^3 ] PN 200110, aorta smooth muscle microsome preparations; assay type: binding; details: pig aorta smooth muscle microsomes; means of three independent experiments
T1 construct: pig aorta smooth muscle microsome preparations; from tissue; host or cells: pig aorta smooth muscle microsomes
T1 sequence (A0A8W4FNC0 1-2067): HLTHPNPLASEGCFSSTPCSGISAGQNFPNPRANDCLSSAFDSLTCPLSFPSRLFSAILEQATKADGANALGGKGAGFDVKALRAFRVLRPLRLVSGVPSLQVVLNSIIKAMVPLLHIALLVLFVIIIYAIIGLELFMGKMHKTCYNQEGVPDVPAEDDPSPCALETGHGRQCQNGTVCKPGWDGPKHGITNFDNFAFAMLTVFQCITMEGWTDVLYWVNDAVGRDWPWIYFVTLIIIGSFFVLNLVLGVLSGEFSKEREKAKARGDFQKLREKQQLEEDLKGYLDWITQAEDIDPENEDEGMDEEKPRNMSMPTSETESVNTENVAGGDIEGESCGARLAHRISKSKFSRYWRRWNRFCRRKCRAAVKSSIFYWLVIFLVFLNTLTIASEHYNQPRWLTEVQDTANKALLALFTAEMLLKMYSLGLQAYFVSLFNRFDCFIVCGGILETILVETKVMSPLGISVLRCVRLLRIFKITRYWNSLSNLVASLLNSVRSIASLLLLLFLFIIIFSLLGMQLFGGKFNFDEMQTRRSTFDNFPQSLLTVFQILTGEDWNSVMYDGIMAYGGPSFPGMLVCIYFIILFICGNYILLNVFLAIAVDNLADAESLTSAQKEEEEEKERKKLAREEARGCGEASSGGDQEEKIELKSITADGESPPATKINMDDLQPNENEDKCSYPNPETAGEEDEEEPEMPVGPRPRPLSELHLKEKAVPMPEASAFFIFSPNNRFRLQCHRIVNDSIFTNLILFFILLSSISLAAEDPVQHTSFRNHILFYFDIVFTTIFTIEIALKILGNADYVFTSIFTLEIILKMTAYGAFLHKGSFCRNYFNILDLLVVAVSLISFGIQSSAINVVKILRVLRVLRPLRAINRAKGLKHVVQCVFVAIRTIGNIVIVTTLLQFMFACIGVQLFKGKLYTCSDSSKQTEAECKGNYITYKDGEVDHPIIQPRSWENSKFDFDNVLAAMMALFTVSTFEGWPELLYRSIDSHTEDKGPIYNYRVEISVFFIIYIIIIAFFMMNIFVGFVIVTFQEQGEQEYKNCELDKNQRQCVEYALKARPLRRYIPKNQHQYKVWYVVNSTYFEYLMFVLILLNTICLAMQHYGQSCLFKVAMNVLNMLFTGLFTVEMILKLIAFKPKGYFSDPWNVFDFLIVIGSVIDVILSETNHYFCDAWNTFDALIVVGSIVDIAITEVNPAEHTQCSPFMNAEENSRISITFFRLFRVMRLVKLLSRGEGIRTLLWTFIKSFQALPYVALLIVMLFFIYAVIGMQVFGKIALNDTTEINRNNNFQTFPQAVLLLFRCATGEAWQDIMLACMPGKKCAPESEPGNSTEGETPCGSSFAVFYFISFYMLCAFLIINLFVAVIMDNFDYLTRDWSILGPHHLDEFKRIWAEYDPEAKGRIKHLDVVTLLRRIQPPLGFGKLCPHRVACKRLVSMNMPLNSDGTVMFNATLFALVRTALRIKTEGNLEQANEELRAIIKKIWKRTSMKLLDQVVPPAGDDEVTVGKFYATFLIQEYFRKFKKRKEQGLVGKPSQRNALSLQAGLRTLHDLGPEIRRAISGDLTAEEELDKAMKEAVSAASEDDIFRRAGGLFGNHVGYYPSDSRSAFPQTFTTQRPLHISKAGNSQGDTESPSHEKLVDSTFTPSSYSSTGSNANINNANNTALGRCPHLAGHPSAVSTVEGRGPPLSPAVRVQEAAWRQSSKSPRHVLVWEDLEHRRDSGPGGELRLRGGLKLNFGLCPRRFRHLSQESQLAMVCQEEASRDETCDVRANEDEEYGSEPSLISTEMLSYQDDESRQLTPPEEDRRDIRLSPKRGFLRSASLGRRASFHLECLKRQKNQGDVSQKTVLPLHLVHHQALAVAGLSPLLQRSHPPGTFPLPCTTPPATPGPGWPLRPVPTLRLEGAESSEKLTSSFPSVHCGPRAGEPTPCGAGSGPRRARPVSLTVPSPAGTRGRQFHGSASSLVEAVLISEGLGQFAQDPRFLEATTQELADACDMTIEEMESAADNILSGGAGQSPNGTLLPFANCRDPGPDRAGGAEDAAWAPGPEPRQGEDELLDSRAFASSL
Excerpt: The results are expressed as IC50 (M) and represent means of three independent experiments.

[3] = with VCR […] i.p., compound 50 mg/kg i.p.
[4] = with VCR […] i.p., compound 150 mg/kg p.o.

| Compound | IC50 (calcium channel) | reversion factor (RF) (DC-3F/AD; compound 1 μM) | reversion factor (RF) (DC-3F/AD; compound 5 μM) | reversion factor (RF) (KB-A1 [1]; compound 1 μM) | reversion factor (RF) (KB-A1 [1]; compound 5 μM) | increase in the ADR fluorescence (VAR-MEAN) (KB-A1 [2]; compound 1 μM) | increase in the ADR fluorescence (VAR-MEAN) (KB-A1 [2]; compound 5 μM) | increase in the ADR fluorescence (VAR-MEAN) (KB-A1 [2]; compound […]) | sensitivity of a chloroquine-resistant line to chloroquine (Plasmodium falciparum) | T/C (P 388/VCR; VCR 0, compound 50 mg/kg i.p.) | T/C (P 388/VCR; VCR 0, compound 150 mg/kg p.o.) | T/C (P 388/VCR; [3]) | T/C (P 388/VCR; [4]) | Survivors on day 60 (P 388; VCR 0) | T/C (P 388; VCR 0) | Survivors on day 60 (P 388; with VCR […] i.p.) | T/C (P 388; with VCR […] i.p.) |
| --- | --- | --- | --- | --- | --- | --- | --- | --- | --- | --- | --- | --- | --- | --- | --- | --- | --- |
| CCOC(=O)C1=C(COCCN)NC(C)=C(C(=O)OC)C1c1ccccc1Cl (centres unmarked) [AMLODIPINE, amlodipine, reference compound] |  | 1.0 | 2.6 | 1.5 | 5.9 | 0.0 | 4.7 | 2.1 | restores the sensitivity of a line resistant to chloroquine |  |  |  |  |  |  |  |  |
| CCOC(=O)C1=C(COCCOCCNCc2ccc([N+](=O)[O-])cc2)NC(C)=C(C(=O)OC)C1c1cccc(Cl)c1Cl (stereo not drawn) [Example 1, d-2-{[2-(2-(N-p-nitrobenzylamino)ethoxy)ethoxy]methyl}-4-(2,3-dichlorophenyl)-3-ethoxycarbonyl-5-methoxycarbonyl-6-methyl-1,4-dihydropyridine] | 1600 nM | 21.0 | 2,613.2 | 32.1 | 640.5 | 5.5 | 45.7 | 26.1 |  | 107% | 99% | 171% | 185% | 0/8 | 99% | 4/8 | > 532% |
| CCOC(=O)C1=C(COCCOCCNCc2ccsc2)NC(C)=C(C(=O)OC)C1c1cccc(Cl)c1Cl (stereo not drawn) [Example 14, d-2-{[2-(2-(N-thien-3-ylmethylamino)ethoxy)ethoxy]methyl}-4-(2,3-dichlorophenyl)-3-ethoxycarbonyl-5-methoxycarbonyl-6-methyl-1,4-dihydropyridine] | 1000 nM | 8.2 | 4,463.2 | 22.7 | 169.4 | 2.4 | 20.5 | 8.2 |  | 99% | 103% | 164% | 200% |  | 95% | 4/8 | > 587% |
| CCOC(=O)C1=C(COCCOCCNCc2ccccn2)NC(C)=C(C(=O)OC)C1c1cccc(Cl)c1Cl (stereo not drawn) [Example 16, d-2-{[2-(2-(N-pyrid-2-ylmethylamino)ethoxy)ethoxy]methyl}-4-(2,3-dichlorophenyl)-3-ethoxycarbonyl-5-methoxycarbonyl-6-methyl-1,4-dihydropyridine] | 1600 nM | 3.4 | 8,248.4 | 13.9 | 122.4 |  |  |  |  |  |  |  |  |  |  |  |  |
| CCOC(=O)C1=C(COCCOCCNCc2cccnc2)NC(C)=C(C(=O)OC)C1c1cccc(Cl)c1Cl (stereo not drawn) [Example 17, d-2-{[2-(2-(N-pyrid-3-ylmethylamino)ethoxy)ethoxy]methyl}-4-(2,3-dichlorophenyl)-3-ethoxycarbonyl-5-methoxycarbonyl-6-methyl-1,4-dihydropyridine] | 1400 nM | 3.7 | 8,600.0 | 10.5 | 120.7 |  |  |  |  |  |  |  |  |  |  |  |  |
| COc1ccc(CCN(C)CCCC(C#N)(c2ccc(OC)c(OC)c2)C(C)C)cc1OC (centres unmarked) [verapamil, reference compound] |  | 1.0 | 3.1 | 4.6 | 26.0 | 3.7 | 12.2 | 8.6 | restores the sensitivity of a line resistant to chloroquine |  |  |  |  |  |  |  |  |

Further lines, with some results ahead:

| IC50 (calcium channel) | Compound | reversion factor (RF) (DC-3F/AD; compound 1 μM) | reversion factor (RF) (DC-3F/AD; compound 5 μM) | reversion factor (RF) (KB-A1 [1]; compound 1 μM) | reversion factor (RF) (KB-A1 [1]; compound 5 μM) | increase in the ADR fluorescence (VAR-MEAN) (KB-A1 [2]; compound 1 μM) | increase in the ADR fluorescence (VAR-MEAN) (KB-A1 [2]; compound 5 μM) | increase in the ADR fluorescence (VAR-MEAN) (KB-A1 [2]; compound […]) | sensitivity of a chloroquine-resistant line to chloroquine (Plasmodium falciparum) | T/C (P 388/VCR; VCR 0, compound 50 mg/kg i.p.) | T/C (P 388/VCR; VCR 0, compound 150 mg/kg p.o.) | T/C (P 388/VCR; [3]) | T/C (P 388/VCR; [4]) | Survivors on day 60 (P 388; VCR 0) | T/C (P 388; VCR 0) | Survivors on day 60 (P 388; with VCR […] i.p.) | T/C (P 388; with VCR […] i.p.) |
| --- | --- | --- | --- | --- | --- | --- | --- | --- | --- | --- | --- | --- | --- | --- | --- | --- | --- |
| 1300 nM | CCOC(=O)C1=C(COCCOCCNCc2ccc3ccccc3c2)NC(C)=C(C(=O)OC)C1c1cccc(Cl)c1Cl (stereo not drawn) [Example 12, d-2-{[2-(2-(N-naphth-2-ylmethylamino)ethoxy)ethoxy]methyl}-4-(2,3-dichlorophenyl)-3-ethoxycarbonyl-5-methoxycarbonyl-6-methyl-1,4-dihydropyridine] | 1.1 | 1,320.1 | 1.2 | 125.4 |  |  |  |  |  |  |  |  |  |  |  |  |
| 1100 nM | CCOC(=O)C1=C(COCCOCCNCc2ccnc3ccccc23)NC(C)=C(C(=O)OC)C1c1cccc(Cl)c1Cl (stereo not drawn) [Example 18, d-2-{[2-(2-(N-quinol-4-ylmethylamino)ethoxy)ethoxy]methyl}-4-(2,3-dichlorophenyl)-3-ethoxycarbonyl-5-methoxycarbonyl-6-methyl-1,4-dihydropyridine] | 3.3 | 5,018.4 | 4.3 | 348.2 |  |  |  |  |  |  |  |  |  |  |  |  |
| 3200 nM | CCOC(=O)C1=C(COCCOCCNCc2nccc3ccccc23)NC(C)=C(C(=O)OC)C1c1cccc(Cl)c1Cl (stereo not drawn) [Example 19, d-2-{[2-(2-(N-isoquinol-1-ylmethylamino)ethoxy)ethoxy]methyl}-4-(2,3-dichlorophenyl)-3-ethoxycarbonyl-5-methoxycarbonyl-6-methyl-1,4-dihydropyridine] | 1.5 | 1,701.7 | 3.6 | 140.5 | 9.4 | 34.7 | 15.7 |  |  |  |  |  |  |  |  |  |
| 2000 nM | CCOC(=O)C1=C(COCCOCCNCc2cnc3ccccc3c2)NC(C)=C(C(=O)OC)C1c1cccc(Cl)c1Cl (stereo not drawn) [Example 23, d-2-{[2-(2-[N-(quinol-3-yl)methylamino]ethoxy)ethoxy]methyl}-4-(2,3-dichlorophenyl)-3-ethoxycarbonyl-5-methoxycarbonyl-6-methyl-1,4-dihydropyridine] | 10.2 | 2,304.0 | 19.6 | 1,035.8 |  |  |  |  |  |  |  |  |  |  |  |  |
